Laboratory results taken from the CheMixHub ionic liquid set.
± gives the uncertainty stated by the source.

Test: xn = mol fraction of the nth substance listed

CC[n+]1ccn(C)c1C.O=S(=O)([N-]S(=O)(=O)C(F)(F)F)C(F)(F)F + COC(=O)OC
viscosity [mPa·s], 101.3 kPa
Conditions | 288.15 K | 293.15 K | 298.15 K | 303.15 K | 308.15 K | 313.15 K
x1 = 0.002023 | 0.685 ± 0.015 | 0.64 ± 0.014 | 0.601 ± 0.013 | 0.564 ± 0.012 | 0.532 ± 0.012 | 0.502 ± 0.011
x1 = 0.003635 | 0.702 ± 0.015 | 0.655 ± 0.014 | 0.613 ± 0.013 | 0.576 ± 0.013 | 0.542 ± 0.012 | 0.512 ± 0.011
x1 = 0.004511 | 0.715 ± 0.016 | 0.668 ± 0.015 | 0.625 ± 0.014 | 0.589 ± 0.013 | 0.556 ± 0.012 | 0.525 ± 0.011
x1 = 0.006328 | 0.731 ± 0.016 | 0.682 ± 0.015 | 0.637 ± 0.014 | 0.599 ± 0.013 | 0.563 ± 0.012 | 0.531 ± 0.012
x1 = 0.007386 | 0.745 ± 0.016 | 0.694 ± 0.015 | 0.65 ± 0.014 | 0.609 ± 0.013 | 0.573 ± 0.013 | 0.541 ± 0.012
x1 = 0.008644 | 0.76 ± 0.017 | 0.706 ± 0.015 | 0.66 ± 0.014 | 0.618 ± 0.014 | 0.58 ± 0.013 | 0.548 ± 0.012
x1 = 0.01069 | 0.79 ± 0.017 | 0.73 ± 0.016 | 0.681 ± 0.015 | 0.638 ± 0.014 | 0.603 ± 0.013 | 0.569 ± 0.012
x1 = 0.01174 | 0.798 ± 0.017 | 0.741 ± 0.016 | 0.691 ± 0.015 | 0.646 ± 0.014 | 0.607 ± 0.013 | 0.571 ± 0.012
x1 = 0.01299 | 0.815 ± 0.018 | 0.757 ± 0.017 | 0.705 ± 0.015 | 0.66 ± 0.014 | 0.619 ± 0.014 | 0.582 ± 0.013
x1 = 0.01405 | 0.825 ± 0.018 | 0.766 ± 0.017 | 0.714 ± 0.016 | 0.666 ± 0.015 | 0.625 ± 0.014 | 0.588 ± 0.013
x1 = 0.01538 | 0.844 ± 0.018 | 0.782 ± 0.017 | 0.728 ± 0.016 | 0.68 ± 0.015 | 0.637 ± 0.014 | 0.599 ± 0.013
x1 = 0.01591 | 0.848 ± 0.019 | 0.786 ± 0.017 | 0.731 ± 0.016 | 0.683 ± 0.015 | 0.639 ± 0.014 | 0.601 ± 0.013
x1 = 0.01645 | 0.854 ± 0.019 | 0.791 ± 0.017 | 0.736 ± 0.016 | 0.687 ± 0.015 | 0.643 ± 0.014 | 0.605 ± 0.013
x1 = 0.01685 | 0.86 ± 0.019 | 0.796 ± 0.017 | 0.74 ± 0.016 | 0.691 ± 0.015 | 0.647 ± 0.014 | 0.608 ± 0.013
x1 = 0.01703 | 0.864 ± 0.019 | 0.8 ± 0.018 | 0.744 ± 0.016 | 0.694 ± 0.015 | 0.651 ± 0.014 | 0.611 ± 0.013
x1 = 0.02124 | 0.91 ± 0.02 | 0.841 ± 0.018 | 0.781 ± 0.017 | 0.727 ± 0.016 | 0.681 ± 0.015 | 0.639 ± 0.014
x1 = 0.02489 | 0.946 ± 0.021 | 0.873 ± 0.019 | 0.81 ± 0.018 | 0.755 ± 0.016 | 0.706 ± 0.015 | 0.662 ± 0.014
x1 = 0.02663 | 0.965 ± 0.021 | 0.891 ± 0.019 | 0.826 ± 0.018 | 0.771 ± 0.017 | 0.72 ± 0.016 | 0.676 ± 0.015
x1 = 0.0275 | 0.978 ± 0.021 | 0.903 ± 0.02 | 0.837 ± 0.018 | 0.78 ± 0.017 | 0.729 ± 0.016 | 0.683 ± 0.015
x1 = 0.03106 | 1.005 ± 0.022 | 0.928 ± 0.02 | 0.86 ± 0.019 | 0.801 ± 0.017 | 0.75 ± 0.016 | 0.702 ± 0.015
x1 = 0.03264 | 1.017 ± 0.022 | 0.939 ± 0.021 | 0.871 ± 0.019 | 0.811 ± 0.018 | 0.759 ± 0.017 | 0.711 ± 0.016
x1 = 0.03671 | 1.052 ± 0.023 | 0.972 ± 0.021 | 0.902 ± 0.02 | 0.839 ± 0.018 | 0.784 ± 0.017 | 0.735 ± 0.016
x1 = 0.04003 | 1.084 ± 0.024 | 1.001 ± 0.022 | 0.928 ± 0.02 | 0.864 ± 0.019 | 0.807 ± 0.018 | 0.756 ± 0.017
x1 = 0.04547 | 1.132 ± 0.025 | 1.046 ± 0.023 | 0.97 ± 0.021 | 0.903 ± 0.02 | 0.843 ± 0.018 | 0.79 ± 0.017
x1 = 0.04804 | 1.154 ± 0.025 | 1.065 ± 0.023 | 0.989 ± 0.022 | 0.92 ± 0.02 | 0.859 ± 0.019 | 0.805 ± 0.018
x1 = 0.05983 | 1.271 ± 0.028 | 1.171 ± 0.026 | 1.086 ± 0.024 | 1.01 ± 0.022 | 0.942 ± 0.021 | 0.881 ± 0.019

CCOC(=O)C[n+]1ccn(C)c1.[Cl-] + NC(N)=O
101 kPa
Conditions | electrical conductivity, 298 K [S/m] | electrical conductivity, 308 K [S/m] | electrical conductivity, 318 K [S/m] | electrical conductivity, 328 K [S/m] | electrical conductivity, 338 K [S/m] | viscosity, 298.15 K [mPa·s]
x1 = 0.4945 | 0.282 ± 0.006 | 0.347 ± 0.007 | 0.414 ± 0.009 | 0.489 ± 0.01 | 0.602 ± 0.012 | 567 ± 31
x1 = 0.5947 | 0.346 ± 0.007 | 0.433 ± 0.009 | 0.51 ± 0.01 | 0.607 ± 0.012 | 0.722 ± 0.015 | 482 ± 25
x1 = 0.7459 | 0.419 ± 0.009 | 0.525 ± 0.011 | 0.631 ± 0.013 | 0.741 ± 0.015 | 0.883 ± 0.018 | 415 ± 20
x1 = 1 | 0.509 ± 0.01 | 0.636 ± 0.013 | 0.764 ± 0.016 | 0.916 ± 0.019 | 1.06 ± 0.022 | 349 ± 16

CC(=O)[O-].[K+] + O + CCCC[n+]1ccn(C)c1.N#C[S-]
viscosity [mPa·s], 101 kPa
Conditions | 298.15 K | 308.15 K | 313.15 K
x1 = 0.01175, x2 = 0.8368 | – | – | 4.625 ± 0.064
x1 = 0.1054, x2 = 0.8943 | 3.195 ± 0.029 | 2.485 ± 0.023 | –

CCCCCCCCCCCCCC[N+](C)(C)C.[Br-] + O
298.15 K, 101 kPa
Conditions | viscosity [mPa·s]
x1 = 2.973e-05 | 0.8984
x1 = 4.144e-05 | 0.8992
x1 = 4.541e-05 | 0.9002
x1 = 6.289e-05 | 0.9005
x1 = 6.739e-05 | 0.9013
x1 = 7.262e-05 | 0.9019
x1 = 0.0001005 | 0.9029
x1 = 0.0001191 | 0.9053
x1 = 0.000178 | 0.9083
